Measured values: ChEMBL document CHEMBL2331203, “Optimization of inhibitors of the tyrosine kinase EphB4. 2. Cellular potency improvement and binding mode validation by X-ray crystallography” (J Med Chem, 2013)

Assays:
[1] = target: T1, Ephrin type-B receptor 2 (Homo sapiens) (UniProt P29323); assay: Inhibition of human Eph-B2 using [gamma-33P]ATP assessed as residual activity at 3 uM after 30 mins by radiometric assay
T1 sequence (whole entry): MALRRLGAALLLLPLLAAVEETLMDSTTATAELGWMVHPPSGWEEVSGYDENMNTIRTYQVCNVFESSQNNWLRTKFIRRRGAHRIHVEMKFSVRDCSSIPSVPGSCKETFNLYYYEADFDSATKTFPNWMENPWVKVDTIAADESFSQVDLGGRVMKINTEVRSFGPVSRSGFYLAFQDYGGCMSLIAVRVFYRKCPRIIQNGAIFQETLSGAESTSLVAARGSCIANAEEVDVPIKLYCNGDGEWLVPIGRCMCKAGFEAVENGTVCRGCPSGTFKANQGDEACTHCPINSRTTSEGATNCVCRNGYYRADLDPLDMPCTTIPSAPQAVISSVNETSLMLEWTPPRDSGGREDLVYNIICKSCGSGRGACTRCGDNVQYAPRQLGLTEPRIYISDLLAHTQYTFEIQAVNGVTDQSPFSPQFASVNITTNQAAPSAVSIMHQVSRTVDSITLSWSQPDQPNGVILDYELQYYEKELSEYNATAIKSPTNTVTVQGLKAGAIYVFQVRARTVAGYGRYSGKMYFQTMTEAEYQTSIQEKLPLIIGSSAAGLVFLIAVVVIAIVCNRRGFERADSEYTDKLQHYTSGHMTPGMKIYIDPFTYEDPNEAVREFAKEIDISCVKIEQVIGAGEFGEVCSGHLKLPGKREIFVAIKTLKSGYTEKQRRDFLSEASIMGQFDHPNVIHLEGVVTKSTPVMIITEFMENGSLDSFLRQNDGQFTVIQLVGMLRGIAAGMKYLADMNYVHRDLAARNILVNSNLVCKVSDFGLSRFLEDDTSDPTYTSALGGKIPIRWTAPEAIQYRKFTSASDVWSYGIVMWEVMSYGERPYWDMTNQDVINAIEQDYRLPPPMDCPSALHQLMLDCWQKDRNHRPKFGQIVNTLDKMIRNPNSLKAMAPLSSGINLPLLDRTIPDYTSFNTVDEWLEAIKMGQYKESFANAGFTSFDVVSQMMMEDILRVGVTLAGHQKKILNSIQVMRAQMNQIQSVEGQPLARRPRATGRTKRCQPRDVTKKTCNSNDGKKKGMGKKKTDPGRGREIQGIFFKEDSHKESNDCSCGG

[2] = target: T2, Ephrin type-B receptor 3 (Homo sapiens) (UniProt P54753); assay: Inhibition of human Eph-B3 using [gamma-33P]ATP assessed as residual activity at 3 uM after 30 mins by radiometric assay
T2 sequence (whole entry): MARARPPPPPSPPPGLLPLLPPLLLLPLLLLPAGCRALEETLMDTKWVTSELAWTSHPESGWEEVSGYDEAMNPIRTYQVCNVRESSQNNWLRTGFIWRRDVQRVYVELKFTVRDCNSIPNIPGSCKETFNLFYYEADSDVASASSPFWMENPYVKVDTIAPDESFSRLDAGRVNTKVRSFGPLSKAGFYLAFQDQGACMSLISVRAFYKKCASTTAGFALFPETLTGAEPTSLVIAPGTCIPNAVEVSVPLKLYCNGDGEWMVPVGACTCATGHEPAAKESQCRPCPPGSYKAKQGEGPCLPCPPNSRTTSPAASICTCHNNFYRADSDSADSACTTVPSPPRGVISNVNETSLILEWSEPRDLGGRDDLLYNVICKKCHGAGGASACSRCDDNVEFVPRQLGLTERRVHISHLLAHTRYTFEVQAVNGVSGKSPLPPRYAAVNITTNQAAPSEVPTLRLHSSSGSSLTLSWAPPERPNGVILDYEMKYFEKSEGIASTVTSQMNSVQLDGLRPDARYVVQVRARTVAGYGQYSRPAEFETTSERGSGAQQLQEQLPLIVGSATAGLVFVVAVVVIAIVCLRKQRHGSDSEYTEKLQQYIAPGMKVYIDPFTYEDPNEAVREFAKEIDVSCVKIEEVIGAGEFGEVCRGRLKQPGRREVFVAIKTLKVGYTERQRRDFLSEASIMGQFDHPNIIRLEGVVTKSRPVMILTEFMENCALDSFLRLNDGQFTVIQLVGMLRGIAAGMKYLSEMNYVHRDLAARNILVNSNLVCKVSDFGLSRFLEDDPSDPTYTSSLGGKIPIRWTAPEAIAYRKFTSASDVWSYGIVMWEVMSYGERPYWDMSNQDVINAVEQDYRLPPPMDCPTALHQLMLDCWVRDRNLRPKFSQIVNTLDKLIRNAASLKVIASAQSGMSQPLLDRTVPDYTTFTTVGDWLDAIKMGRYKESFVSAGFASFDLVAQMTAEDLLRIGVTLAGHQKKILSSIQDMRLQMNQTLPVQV

[3] = Cytotoxicity against human LXFA 983L cells after 4 days by propidium iodide staining; settings: 96 h
[4] = Permeability from basolateral to apical side in human Caco2 cells assessed as compound recovery after 2 hrs by LC-MS/MS analysis; assay type: ADME, cell-based; settings: Caco-2, read-out: permeability
[5] = Permeability from apical to basolateral side in human Caco2 cells assessed as compound recovery after 2 hrs by LC-MS/MS analysis; assay type: ADME, cell-based; settings: Caco-2, read-out: permeability
[6] = target: Tyrosine-protein kinase CSK (Homo sapiens) (UniProt P41240); assay: Inhibition of human CSK using [gamma-33P]ATP assessed as residual activity at 3 uM after 30 mins by radiometric assay
Sequence of Tyrosine-protein kinase CSK (Homo sapiens) (P41240 2-450 limits assumed): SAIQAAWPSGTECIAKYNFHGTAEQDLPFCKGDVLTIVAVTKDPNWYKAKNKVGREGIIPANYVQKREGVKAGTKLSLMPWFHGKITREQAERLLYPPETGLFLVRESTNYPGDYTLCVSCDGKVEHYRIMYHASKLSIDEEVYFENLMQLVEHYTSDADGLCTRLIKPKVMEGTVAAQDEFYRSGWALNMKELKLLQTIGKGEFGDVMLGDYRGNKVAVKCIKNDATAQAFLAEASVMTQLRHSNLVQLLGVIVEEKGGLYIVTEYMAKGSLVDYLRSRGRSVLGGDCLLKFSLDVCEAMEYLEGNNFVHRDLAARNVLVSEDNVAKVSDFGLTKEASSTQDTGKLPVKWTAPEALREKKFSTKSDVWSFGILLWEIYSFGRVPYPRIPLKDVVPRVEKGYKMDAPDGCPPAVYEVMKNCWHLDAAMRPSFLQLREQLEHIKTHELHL

Activity [1]: 8% | Activity [2]: 13% | recovery at 2 h [4]: 89% | recovery at 2 h [5]: 85% | Activity [6]: 57%
SMILES: CCCCn1c(-c2ccccc2C)cn2c3c(=O)[nH]c(=O)n(C)c3nc12
IC50 [3]: 5.45 µM
